Test results: patent US8895568B2, “Compositions comprising substituted pteridines as agrochemicals” (Dow AgroSciences LLC, priority 2009, dated 2014)
Like-named read-outs stand apart in the source and are kept apart here.

Key:
Type in all cases: in vivo
[1] = tested on: DROSME, AEDSAE, LAPHEG, or HELIVI; assay: Insecticidal activity, active if any of DROSME, AEDSAE, LAPHEG or HELIVI was controlled at 80% or more; conditions: read-out: >80% mortality on any insect species @ 4000 ppm
[2] = tested on: Pseudoperonospora cubensis; assay: Cucumber Downy Mildew (PSPECU), foliar spray, percent disease control; conditions: read-out: PSPECU percent control
Experimental: The activity of the compounds as effective fungicides was determined by applying the compounds to plants and observing control of fungal disease. The compounds were formulated at 200 ppm in 10 vol. % acetone plus 90 vol. % Triton X water (deionized water 99.99 wt %+0.01 wt % Triton X100), giving a “formulated test compound.” In a few cases, compounds were formulated at 75 or 8.3 ppm rather than 200 ppm in 10 vol. % acetone plus 90 vol. % Triton X water (deionized water 99.99 wt. %+0.01 wt. % Triton X100), giving a “formulated test compound.” Formulated test compounds were applied to plants using a turn table sprayer fitted with two opposing air atomization nozzles which delivered approximately 1500 L/ha of spray volume. All plants were inoculated with spores of the fungus the day after treatment, then incubated in an environment conducive to disease development. Disease severity was evaluated 4 to 15 days later, depending on the disease and the speed of disease development. The following experiments were performed in the laboratory to determine the fungicidal efficacy of the compounds of the invention. Cucumber Downy Mildew (causal agent Pseudoperonospora cubensis; Bayer code […]): Cucumber plants (variety Bush Champion) were grown from seed in a soil-less peat-based potting mixture (Metromix) until the first true leaf was 20-80% expanded. Each pot contained 1 seedling. These plants were sprayed until wet with the formulated test compound. On the following day, the leaves were inoculated with an aqueous suspension of downy mildew sporangia and the plants were kept in high humidity for one day to permit sporangia to germinate and infect the leaf. The plants were then incubated in a growth chamber until disease developed on untreated control plants. […] The effectiveness of the test compounds at controlling disease when sprayed on leaves was determined by assessing the severity of disease on treated plants, then converting the severity to percent control based on the level of disease on untreated, inoculated plants. Data are the level (in percent) at which the given disease was controlled when the given compound was applied to the foliage of the plants at 200 ppm. In a few cases (noted in the table) the compound was applied to the plants at 75 ppm or 8.3 ppm.

Cochliobolus sativus = assay: Spot Blotch of Wheat (COCHSA), foliar spray, percent disease control
Colletotricum lagenarium = assay: Cucumber Anthracnose (COLLLA), foliar spray, percent disease control
Experimental: The activity of the compounds as effective fungicides was determined by applying the compounds to plants and observing control of fungal disease. The compounds were formulated at 200 ppm in 10 vol. % acetone plus 90 vol. % Triton X water (deionized water 99.99 wt %+0.01 wt % Triton X100), giving a “formulated test compound.” In a few cases, compounds were formulated at 75 or 8.3 ppm rather than 200 ppm in 10 vol. % acetone plus 90 vol. % Triton X water (deionized water 99.99 wt. %+0.01 wt. % Triton X100), giving a “formulated test compound.” Formulated test compounds were applied to plants using a turn table sprayer fitted with two opposing air atomization nozzles which delivered approximately 1500 L/ha of spray volume. All plants were inoculated with spores of the fungus the day after treatment, then incubated in an environment conducive to disease development. Disease severity was evaluated 4 to 15 days later, depending on the disease and the speed of disease development. The following experiments were performed in the laboratory to determine the fungicidal efficacy of the compounds of the invention. Cucumber Anthracnose (causal agent Colletotricum lagenarium; Bayer code COLLLA): Cucumber plants (variety Bush Champion) were grown from seed in a soil-less peat-based potting mixture (Metromix) until the first true leaf was 20-80% expanded. Each pot contained 1 seedling. These plants were sprayed until wet with the formulated test compound. On the following day, the leaves were inoculated with an aqueous spore suspension of Colletotricum lagenarium and the plants were kept in high humidity for one day to permit spores to germinate and infect the leaf. The plants were then transferred to a growth chamber until disease developed on untreated control plants. […] The effectiveness of the test compounds at controlling disease when sprayed on leaves was determined by assessing the severity of disease on treated plants, then converting the severity to percent control based on the level of disease on untreated, inoculated plants. Data are the level (in percent) at which the given disease was controlled when the given compound was applied to the foliage of the plants at 200 ppm. In a few cases (noted in the table) the compound was applied to the plants at 75 ppm or 8.3 ppm.

[3] = Bipolaris sorokiniana, foliar; read-out: COCHSA percent control
[4] = Bipolaris sorokiniana; foliar spray; read-out: COCHSA percent control

Row | SMILES | pest or weed control at 4000 ppm [1] | pest or weed control at 200 µg/mL ([2]; foliar) | pest or weed control at 200 µg/mL (Cochliobolus sativus; [3]) | pest or weed control at 200 µg/mL (Colletotricum lagenarium; foliar) | pest or weed control at 200 µg/mL ([2]; foliar spray) | pest or weed control at 200 µg/mL (Cochliobolus sativus; [4]) | pest or weed control at 200 µg/mL (Colletotricum lagenarium; foliar spray) | pest or weed control at 200 µg/mL (Cochliobolus sativus; Bipolaris sorokiniana, foliar, read-out: COCHSA percent control)
1 | CC(C)c1ccc(Oc2ccc(CCNc3ncnc4nccnc34)cc2)cc1 [Compound 132, {2-[4-(4-Isopropylphenoxy)-phenyl]-ethyl}-pteridin-4-yl-amine] | > 80% | 80 to 100% | 0 to 49% | 0 to 49% | – | – | – | –
2 | FC(F)(F)c1ccnc(Oc2ccc(CCNc3ncnc4nccnc34)cc2Br)c1 [Compound 212, {2-[3-bromo-4-(4-trifluoromethylpyridin-2-yloxy)-phenyl]-ethyl}-pteridin-4-yl-amine] | > 80% | – | – | – | 80 to 100% | 50 to 79% | 80 to 100% | –
3 | COc1cc(CCNc2ncnc3nccnc23)ccc1Oc1nccc(C(F)(F)F)n1 [Compound 97] | > 80% | 80 to 100% | 0 to 49% | 0 to 49% | – | – | – | –
4 | COc1cc(CCNc2ncnc3nccnc23)ccc1Oc1ncc(C(F)(F)F)cc1F [Compound 130] | > 80% | 80 to 100% | 0 to 49% | 0 to 49% | – | – | – | –
5 | FC(F)(F)c1ccc(Oc2ccc(CCNc3ncnc4nccnc34)cn2)cc1 [Compound 126] | > 80% | 80 to 100% | 0 to 49% | 80 to 100% | – | – | – | –
6 | CC(F)(F)c1ccnc(Oc2ccc(CCNc3ncnc4nccnc34)cc2O)c1 [Compound 197, 2-[4-(1,1-Difluoroethyl)-pyridin-2-yloxy]-5-[2-(pteridin-4-ylamino)-ethyl]-phenol] | – | 80 to 100% | 0 to 49% | 0 to 49% | – | – | – | –
7 | Fc1cnc(C(F)(F)F)c(F)c1Oc1cccc(CCNc2ncnc3nccnc23)c1 [Compound 71] | – | 0 to 49% | 0 to 49% | 0 to 49% | – | – | – | –
8 | FC(F)(F)c1ccnc(Cl)c1Oc1ccc(CCNc2ncnc3nccnc23)cc1 [Compound 56] | – | 50 to 79% | 0 to 49% | 0 to 49% | – | – | – | –
9 | CON=C(C)c1ccnc(Oc2ccc(CCNc3ncnc4nccnc34)cc2)c1 [Compound 63] | – | 80 to 100% | 0 to 49% | 0 to 49% | – | – | – | –
10 | COc1cc(C(F)(F)F)cc(Oc2ccc(CCNc3ncnc4nccnc34)cc2OC)n1 [Compound 178] | – | 0 to 49% | 0 to 49% | 0 to 49% | – | – | – | –
11 | CC(C)(C)OC(=O)N(CCc1ccc(O)cc1)c1ncnc2nccnc12 [Compound 217, [2-(4-Hydroxyphenyl)-ethyl]-pteridin-4-yl-carbamic acid tert-butyl Ester] | – | – | – | – | 50 to 79% | 50 to 79% | 0 to 49% | –
12 | Oc1ccc(CCNc2ncnc3ncc(Cl)nc23)cc1 [Compound 73] | – | 0 to 49% | 0 to 49% | 0 to 49% | – | – | – | –
13 | FC(F)(F)c1ccnc(Oc2ccc(CCNc3ncnc4nccnc34)cc2)n1 [Compound 3] | – | 80 to 100% | 0 to 49% | 50 to 79% | – | – | – | –
14 | Cc1cc(CCNc2ncnc3nccnc23)ccc1O [Compound 174] | – | 0 to 49% | 0 to 49% | 0 to 49% | – | – | – | –
15 | COc1ccc(CCNc2nc(C)nc3nc(C)c(C)nc23)cc1 [Compound 208, [2-(4-Methoxyphenyl)-ethyl]-(2,6,7-trimethylpteridin-4-yl)-amine] | – | – | – | – | 50 to 79% | 0 to 49% | 0 to 49% | –
16 | COc1ccc(CCNc2ncnc3nccnc23)cc1F [Compound 176] | – | 0 to 49% | 0 to 49% | 0 to 49% | – | – | – | –

Row | SMILES | pest or weed control at 4000 ppm [1] | pest or weed control at 200 µg/mL ([2]; foliar) | pest or weed control at 200 µg/mL (Cochliobolus sativus; [3]) | pest or weed control at 200 µg/mL (Colletotricum lagenarium; foliar) | pest or weed control at 200 µg/mL ([2]; foliar spray) | pest or weed control at 200 µg/mL (Cochliobolus sativus; [4]) | pest or weed control at 200 µg/mL (Colletotricum lagenarium; foliar spray) | pest or weed control at 200 µg/mL (Cochliobolus sativus; Bipolaris sorokiniana, foliar, read-out: COCHSA percent control)
17 | Cc1c(O)ccc(CCNc2ncnc3nccnc23)c1C [Compound 175] | – | 0 to 49% | 0 to 49% | 0 to 49% | – | – | – | –
18 | FC(F)(F)c1ccc(Oc2ccc(CCNc3ncnc4ncc(Cl)nc34)cc2)nc1 [Compound 124] | – | 80 to 100% | 0 to 49% | 0 to 49% | – | – | – | –
19 | O=Cc1cc(C(F)(F)F)ccc1Oc1ccc(CCNc2ncnc3nccnc23)cc1 [Compound 100] | – | 80 to 100% | 0 to 49% | 0 to 49% | – | – | – | –
20 | Oc1ccc(CCNc2ncnc3nccnc23)cc1 [Compound 4, 4-[2-(Pteridin-4-ylamino)-ethyl]-phenol] | – | 0 to 49% | 0 to 49% | 0 to 49% | – | – | – | –
21 | COc1cc(CCNc2ncnc3nccnc23)ccc1Oc1cc(C#N)ccn1 [Compound 57] | – | 80 to 100% | 0 to 49% | 0 to 49% | – | – | – | –
22 | COc1cc(C)c(CCNc2ncnc3nccnc23)cc1C [Compound 151] | – | 80 to 100% | 0 to 49% | 0 to 49% | – | – | – | –
23 | CCOc1cc(CCNc2ncnc3nccnc23)ccc1Oc1cc(C(C)(F)F)ccn1 [Compound 189] | – | 80 to 100% | 0 to 49% | 50 to 79% | – | – | – | –
24 | Cc1cnc2ncnc(NCCc3ccc(O)cc3)c2n1 [Compound 38] | – | 0 to 49% | 0 to 49% | 0 to 49% | – | – | – | –
25 | CC(C)(C)c1cc[n+]([O-])c(Oc2ccc(CCNc3ncnc4nccnc34)cc2)c1 [Compound 172, {2-[4-(4-tert-Butyl-1-oxypyridin-2-yloxy)-phenyl]-ethyl}-pteridin-4-ylamine] | – | 80 to 100% | 0 to 49% | 0 to 49% | – | – | – | –
26 | COc1ccc(CCNc2ncnc3nccnc23)cc1Cl [Compound 158] | – | 0 to 49% | 0 to 49% | 0 to 49% | – | – | – | –
27 | N#Cc1ccnc(Oc2ccc(OCCNc3ncnc4nccnc34)cc2)c1 [Compound 85] | – | 80 to 100% | 0 to 49% | 0 to 49% | – | – | – | –
28 | CC(F)(F)c1ccnc(Oc2ccc(CCNc3ncnc4nccnc34)cc2F)c1 [Compound 193] | – | 80 to 100% | 0 to 49% | 0 to 49% | – | – | – | –
29 | CC(C)(C)[Si](C)(C)Oc1ccc(CCNc2ncnc3nccnc23)cc1 [Compound 133, {2-[4-(tert-Butyldimethylsilanyloxy)-phenyl]-ethyl}-pteridin-4-yl-amine] | – | 80 to 100% | – | 0 to 49% | – | – | – | 0 to 49%
30 | Oc1ccc(CCNc2ncnc3nccnc23)cc1F [Compound 177] | – | 0 to 49% | 0 to 49% | 0 to 49% | – | – | – | –
31 | CC(=O)Oc1cc(CCNc2ncnc3nccnc23)ccc1Oc1cc(C(C)(F)F)ccn1 [Compound 196] | – | 80 to 100% | 0 to 49% | 0 to 49% | – | – | – | –
